Like-named read-outs stand apart in the source and are kept apart here.
Biological target: T1, FmlHLD (Escherichia coli, UniProt P77588)
T1 construct: 6xHis (C); made in house; host or cells: E. coli C600, periplasm, pTRC99a
Test: biochemical
Type: binding, E. coli
Conditions: for inhibitory potency against FmlH, in words: ELISA-based competition assay; for potency relative to matched pair Gal/GalNAc derivative: 2038 vs 2043, 2050 vs 3029
Description: Thereafter, wells were incubated with 200 μl blocking buffer (PBS+1% BSA) for 2 hours at 23° C., followed by incubation with 100 μl biotinylated FmlHLD diluted in blocking buffer to 20 μg/ml in the presence or absence of the tested compounds for 1 hr at 23° C. After washing 3× with PBS+0.05% TWEEN-20, 100 μl Streptavidin-HRP conjugate (BD Biosciences; 1:2000 dilution in blocking buffer) was added to each well for 1 hr at 23° C. After a final round of washing, plates were developed with 100 μl Tetramethylbenzidine (TMB, BD Biosciences) substrate, quenched within 1-2 min with 50 μl […], and absorbance measured at 450 nm.
Select top hit compounds and few low-scoring analogs from the virtual screening, as well as synthetic galactosides, were tested in the ELISA-based competition assay for their ability to inhibit binding of FmlHLD to ds-BSM. The ELISA assay was performed using the protocol described in Example 18. […] All compounds were tested at 100 μM; a subset was tested at 10 μM; and the strongest subset was additionally tested at 1 μM. […] Percent inhibition (PI) values are reported as the mean with standard error of the mean for galactosides tested at 100 μM (PI100), 10 μM (PI10), and 1 μM (PI1) in the ELISA-based competition assay. […] The “thio” designation indicates a sulfur linkage between the sugar and the aglycone group, the “phospho” designation indicates a phosphate group attached the C6-hydroxyl group on the sugar, and the “uro” designation indicates galacturonide as the sugar.
The ELISA assay was performed using the protocol described in Example 18. All compounds were tested at 1 μM and a subset was additionally tested at 100 nM. Average percent inhibition (PI) values are reported for compounds tested at 1 μM (PI1) and 100 nM (PI0.1).
Briefly, 1 μg bovine submaxillary mucin (Sigma) in 100 uL PBS were incubated with Immulon 4HBX 96-well plates overnight prior to treatment with 1 mU Arthrobacter ureafaciens sialidase for 1 hour at 37° C. to remove terminal sialic acid sugars. Wells were then blocked with 200 μL PBS+1% BSA for 2 hours at room temperature. Biotinylated FmlH^LD was diluted to 20 μg/mL in blocking buffer and incubated in the presence or absence of compounds serially diluted 2× down eight rows for 1 hour at room temperature. Wells were washed three times with PBS 0.05% TWEEN-20 then incubated with 100 μL of streptavidin-HRP conjugate (BD Biosciences; 1:2,000 dilution in blocking buffer) for one hour. After three additional PBS+0.05% TWEEN washes, plates were developed with 100 μL of tetramethylbenzidine (BD Biosciences) substrate and quenched with 50 μL of 1 M H2SO4. Total bound portion concentration was measured by the absorbance at 450 nm. IC50s were determined using the Graphpad Prism software.
The compounds synthesized herein were tested in the ELISA-based competition assay for their ability to inhibit binding of FmlHLD to ds-BSM. The ELISA assay was performed using the protocol described in Example 18. Compounds were tested at […], 1 μM, and 100 nM. as indicated on the table. […] ND means the corresponding value was not determined for this summary (but may be available elsewhere in the Examples).

[1] = IC50 (μM), Table 5, Gal and GalNAc inhibition of FmlH
[2] = read-out: % Inhibition at [μM] [1], compound at 1 μM, inhibition of FmlHLD binding to ds-BSM
[3] = read-out: PI(1) (average percent inhibition), compound at 1 μM, Table 4
[4] = IC50, inhibition of FmlHLD binding to ds-BSM
[5] = read-out: % Inhibition at [μM] [0.1], compound at 0.1 μM (100 nM), inhibition of FmlHLD binding to ds-BSM
[6] = read-out: PI (0.1) (average percent inhibition), compound at 100 nM, Table 4

T1 sequence (P77588 25-182): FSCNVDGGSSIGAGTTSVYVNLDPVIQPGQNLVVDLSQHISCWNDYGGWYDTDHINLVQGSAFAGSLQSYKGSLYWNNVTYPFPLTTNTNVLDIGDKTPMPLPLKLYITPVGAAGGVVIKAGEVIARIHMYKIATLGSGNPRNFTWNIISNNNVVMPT

Structure (SMILES)	inhibitory potency against FmlH, in words	IC50 [1] [µM]	inhibition at 1 µM [2] [%]	inhibition at 1 µM [3] [%]	potency relative to matched pair Gal/GalNAc derivative	IC50 [4] [µM]	greater potency than 29β-NAc (IC50 ratio) [fold]	inhibition at 0.1 µM [5] [%]	inhibition at 0.1 µM [6] [%]
CC(=O)N[C@H]1[C@H](Oc2ccccc2-c2cccc(C(N)=O)c2)O[C@H](CO)[C@H](O)[C@@H]1O [AM2033, 2′-(((2S,3R,4R,5R,6R)-3-acetamido-4,5-dihydroxy-6-(hydroxymethyl)tetrahydro-2H-pyran-2-yl)oxy)-[1,1′-biphenyl]-3-carboxamide]	equal or slightly reduced potency	1.65	3.52	3.52	–	–	–	–	–
CC(=O)N[C@H]1[C@H](Oc2ccccc2-c2cccc(C#N)c2)O[C@H](CO)[C@H](O)[C@@H]1O [AM2035, N-((2S,3R,4R,5R,6R)-2-((3′-cyano-[1,1′-biphenyl]-2-yl)oxy)-4,5-dihydroxy-6-(hydroxymethyl)tetrahydro-2H-pyran-3-yl)acetamide]	equal or slightly reduced potency	0.97	20.9	20.9	–	–	–	–	–
CC(=O)N[C@H]1[C@H](Oc2ccccc2-c2cccc(C(F)(F)F)c2)O[C@H](CO)[C@H](O)[C@@H]1O [AM2037, N-((2S,3R,4R,5R,6R)-4,5-dihydroxy-6-(hydroxymethyl)-2-((3′-(trifluoromethyl)-[1,1′-biphenyl]-2-yl)oxy)tetrahydro-2H-pyran-3-yl)acetamide]	equal or slightly reduced potency	1.51	15.7	15.7	–	–	–	–	–
CC(=O)N[C@H]1[C@H](Oc2ccccc2-c2cccc(NS(C)(=O)=O)c2)O[C@H](CO)[C@H](O)[C@@H]1O [AM2038, N-((2S,3R,4R,5R,6R)-4,5-dihydroxy-6-(hydroxymethyl)-2-((3′-(methylsulfonamido)-[1,1′-biphenyl]-2-yl)oxy)tetrahydro-2H-pyran-3-yl)acetamide]	–	0.23	81.4	81.4	about 5 fold	0.271	3	16.5	16.5
CNC(=O)c1cccc(-c2ccccc2O[C@@H]2O[C@H](CO)[C@H](O)[C@H](O)[C@H]2O)c1 [AM2042, N-methyl-2′-(((2S,3R,4S,5R,6R)-3,4,5-trihydroxy-6-(hydroxymethyl)tetrahydro-2H-pyran-2-yl)oxy)-[1,1′-biphenyl]-3-carboxamide]	–	–	16.6	16.6	–	–	–	0	0
CS(=O)(=O)Nc1cccc(-c2ccccc2O[C@@H]2O[C@H](CO)[C@H](O)[C@H](O)[C@H]2O)c1 [AM2043, N-(2′-(((2S,3R,4S,5R,6R)-3,4,5-trihydroxy-6-(hydroxymethyl)tetrahydro-2H-pyran-2-yl)oxy)-[1,1′-biphenyl]-3-yl)methanesulfonamide]	loss in activity relative to 29β-NAc	1.11	49.8	49.8	–	1.11	–	1.6	1.6
O=C(O)c1cc(-c2ccccc2O[C@@H]2O[C@H](CO)[C@H](O)[C@H](O)[C@H]2O)cc([N+](=O)[O-])c1 [AM2050, 5-nitro-2′-(((2S,3R,4S,5R,6R)-3,4,5-trihydroxy-6-(hydroxymethyl)tetrahydro-2H-pyran-2-yl)oxy)-[1,1′-biphenyl]-3-car oxylic acid]	–	0.28	68	68	6 fold	0.418	–	7.6	7.6
COc1ccc(C(=O)O)cc1-c1ccccc1O[C@@H]1O[C@H](CO)[C@H](O)[C@H](O)[C@H]1NC(C)=O [AM2051]	–	–	15.9	–	–	–	–	0	–
CCOC(=O)c1ccc(OC)c(-c2ccccc2O[C@@H]2O[C@H](CO)[C@H](O)[C@H](O)[C@H]2NC(C)=O)c1 [AM2053, ethyl 2′-(((2S,3R,4R,5R,6R)-3-acetamido-4,5-dihydroxy-6-(hydroxymethyl)tetrahydro-2H-pyran-2-yl)oxy)-6-methoxy-[1,1′-biphenyl]-3-carboxylate]	–	–	13.7	13.7	–	–	–	0	0
CC(=O)N[C@H]1[C@H](Oc2ccccc2-c2cccc(S(C)(=O)=O)c2)O[C@H](CO)[C@H](O)[C@@H]1O [AM2059, N-((2S,3R,4R,5R,6R)-4,5-dihydroxy-6-(hydroxymethyl)-2-((3′-(methylsulfonyl)-[1,1′-biphenyl]-2-yl)oxy)tetrahydro-2H-pyran-3-yl)acetamide]	equal or slightly reduced potency	0.7	23.3	23.3	–	–	–	0.1	0.1
CC(=O)Nc1cccc(-c2ccccc2O[C@@H]2O[C@H](CO)[C@H](O)[C@H](O)[C@H]2NC(C)=O)c1 [AM2062, N-(2′-(((2S,3R,4R,5R,6R)-3-acetamido-4,5-dihydroxy-6-(hydroxymethyl)tetrahydro-2H-pyran-2-yl)oxy)-[1,1′-biphenyl]-3-yl)acetamide]	–	0.31	67.9	67.9	–	0.623	–	14.8	14.8
CC(=O)N[C@H]1[C@H](Oc2ccccc2-c2cccc(CO)c2)O[C@H](CO)[C@H](O)[C@@H]1O [AM2064, N-((2S,3R,4R,5R,6R)-4,5-dihydroxy-6-(hydroxymethyl)-2-((3′-(hydroxymethyl)-[1,1′-biphenyl]-2-yl)oxy)tetrahydro-2H-pyran-3-yl)acetamide]	equal or slightly reduced potency	0.63	38.9	38.9	–	–	–	2	2
COC(=O)Nc1cccc(-c2ccccc2O[C@@H]2O[C@H](CO)[C@H](O)[C@H](O)[C@H]2NC(C)=O)c1 [AM2065, methyl (2′-(((2S,3R,4R,5R,6R)-3-acetamido-4,5-dihydroxy-6-(hydroxymethyl)tetrahydro-2H-pyran-2-yl)oxy)-[1,1′-biphenyl]-3-yl)carbamate]	equal or slightly reduced potency	0.63	45.3	45.3	–	1.05	–	0	0
COc1ccc(O)cc1-c1ccccc1O[C@@H]1O[C@H](CO)[C@H](O)[C@H](O)[C@H]1NC(C)=O [AM2073, N-((2S,3R,4R,5R,6R)-4,5-dihydroxy-2-((5′-hydroxy-2′-methoxy-[1,1′-biphenyl]-2-yl)oxy)-6-(hydroxymethyl)tetrahydro-2H-pyran-3-yl)acetamide]	equal or slightly reduced potency	0.51	34.2	34.2	–	–	–	7.1	7.1
COc1ccc(OS(C)(=O)=O)cc1-c1ccccc1O[C@@H]1O[C@H](CO)[C@H](O)[C@H](O)[C@H]1NC(C)=O [AM2077, 2′-(((2S,3R,4R,5R,6R)-3-acetamido-4,5-dihydroxy-6-(hydroxymethyl)tetrahydro-2H-pyran-2-yl)oxy)-6-methoxy-[1,1′-biphenyl]-3-yl methanesulfonate]	equal or slightly reduced potency	3.72	0	0	–	–	–	2.5	2.5

— patent publication US11773127B2, “Compounds and methods for treating bacterial infections” (Washington University, priority 2017, dated 2023)
